Data on 20 compounds can be found in ChEMBL document CHEMBL4118274, “Synthesis and biological evaluation of pyridine-linked indanone derivatives: Potential agents for inflammatory bowel disease” (Bioorg Med Chem Lett, 2018).

Active and inactive are the calls of the source. No cut-off for these calls is given here. A value given as a limit tells only on which side of the number the result lay.

Experiment [1] deals with Tumor necrosis factor (Homo sapiens) (UniProt P01375). The experiment is described as follows: Inhibition of TNFalpha (unknown origin)-induced adhesion of BCECF fluorescence-labeled human U937 cells to human HT-29 cells at 10 uM measured at 3 hrs post TNFalpha stimulation relative to control.
Tumor necrosis factor (Homo sapiens), sequence (P01375 whole entry): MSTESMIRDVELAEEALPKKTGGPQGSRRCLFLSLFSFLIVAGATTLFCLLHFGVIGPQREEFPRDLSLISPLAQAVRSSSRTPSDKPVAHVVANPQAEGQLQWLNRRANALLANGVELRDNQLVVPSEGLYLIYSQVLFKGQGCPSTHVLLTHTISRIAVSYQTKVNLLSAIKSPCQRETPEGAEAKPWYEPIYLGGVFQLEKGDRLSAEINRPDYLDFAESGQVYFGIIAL
The target is the same in experiment [2]. The experiment can be described thus: Potency index, ratio of test compound activity to 5-aminosalicylate activity for inhibition of TNFalpha (unknown origin)-induced adhesion of BCECF fluorescence-labeled human U937 cells to human HT-29 cells.
In experiment [3] the test system is Rattus norvegicus. The experiment is described as follows: In vivo of inhibition of TNBS-induced decrease in body weight in TNBS-induced colitis Sprague-Dawley rat model at 25 mg/kg/day, po administered on day of TNBS administration and on four consecutive days measured on day 6. In kind it is functional, organism-based.
The test system of experiment [4] is Rattus norvegicus. The experiment can be described thus: In vivo of inhibition of TNBS-induced up-regulation of IL-1beta in TNBS-induced colitis Sprague-Dawley rat model at 25 mg/kg/day, po administered on day of TNBS administration and on four consecutive days measured on day 6 by Western blot method. In kind it is functional, organism-based. A general note: Immunoblotting shows a protein as a band on a membrane.

The subject of experiment [5] is Rattus norvegicus. The experiment can be described thus: In vivo of inhibition of TNFalpha-induced SNAIL expression in TNBS-induced colitis Sprague-Dawley rat model at 25 mg/kg/day, po administered on day of TNBS administration and on four consecutive days measured on day 6 by Western blot method. In kind it is functional, organism-based.
The target of experiment [6] is Tumor necrosis factor (Homo sapiens) (UniProt P01375). The experiment is described as follows: Inhibition of TNFalpha (unknown origin)-induced decrease in E-cadherin expression in human HT-29 cells at 10 uM pretreated with cells for 1 hr followed by TNFalpha induction for 3 hrs by Western blot analysis. In kind it is cell-based.
Experiment [7] concerns Rattus norvegicus. The experiment is described as follows: In vivo of inhibition of TNFalpha-induced up-regulation of MCP-1 expression in TNBS-induced colitis Sprague-Dawley rat model at 25 mg/kg/day, po administered on day of TNBS administration and on four consecutive days measured on day 6 by Western blot method. In kind it is functional, organism-based.
Experiment [8] concerns the target Tumor necrosis factor (Homo sapiens) (UniProt P01375). The experiment is described as follows: Inhibition of TNFalpha (unknown origin)-induced NFkappaB transcriptional activity in human HT-29 cells at 10 uM pretreated with cells for 1 hr followed by TNFalpha induction for 3 hrs by dual luciferase reporter gene assay. In kind it is cell-based. A general note: A reporter such as luciferase makes a cellular process visible.

Experiment [9] has the same target. The experiment can be described thus: Inhibition of TNFalpha (unknown origin)-induced MCP-1 expression in human HT-29 cells at 10 uM preincubated with cells for 1 hr followed by TNFalpha induction of 3 hrs by Western blot analysis. In kind it is cell-based.
The subject of experiment [10] is Rattus norvegicus. The experiment is described as follows: In vivo of inhibition of TNBS-induced up-regulation of TNFalpha in TNBS-induced colitis Sprague-Dawley rat model at 25 mg/kg/day, po administered on day of TNBS administration and on four consecutive days measured on day 6 by Western blot method. In kind it is functional, organism-based.
For experiment [11], the target named is Tumor necrosis factor (Homo sapiens) (UniProt P01375). The experiment is described as follows: Inhibition of TNFalpha (unknown origin)-induced ICAM-1 expression in human HT-29 cells at 10 uM preincubated with cells for 1 hr followed by TNFalpha induction of 3 hrs by Western blot analysis. In kind it is cell-based.
Experiment [12] shares this target. The experiment is described as follows: Potency index, ratio of 5-aminosalicylate IC50 to test compound IC50 for TNFalpha (unknown origin)-induced adhesion of BCECF fluorescence-labeled human U937 cells to human HT-29.
In experiment [13] the test system is Rattus norvegicus. The experiment is described as follows: In vivo of inhibition of TNBS-induced increase in colon weight in TNBS-induced colitis Sprague-Dawley rat model at 25 mg/kg/day, po administered on day of TNBS administration and on four consecutive days measured on day 6. In kind it is functional, organism-based.
In experiment [14] the test system is Rattus norvegicus. The experiment is described as follows: In vivo of inhibition of TNFalpha-induced decrease in E-cadherin expression in TNBS-induced colitis Sprague-Dawley rat model at 25 mg/kg/day, po administered on day of TNBS administration and on four consecutive days measured on day 6 by Western blot method. In kind it is functional, organism-based.

Experiment [15] concerns the target Tumor necrosis factor (Homo sapiens) (UniProt P01375). The experiment can be described thus: Inhibition of TNFalpha (unknown origin)-induced SNAIL expression in human HT-29 cells at 10 uM pretreated with cells for 1 hr followed by TNFalpha induction for 3 hrs by Western blot analysis. In kind it is cell-based.
Experiment [16] deals with Rattus norvegicus. The experiment can be described thus: In vivo of inhibition of TNBS-induced increase in myeloperoxidase level in TNBS-induced colitis Sprague-Dawley rat model colon tissue at 25 mg/kg/day, po administered on day of TNBS administration and on four consecutive days measured on day 6. In kind it is functional, organism-based.
For experiment [17], the system named is Rattus norvegicus. The experiment can be described thus: In vivo of inhibition of TNFalpha-induced up-regulation of ICAM-1 expression in TNBS-induced colitis Sprague-Dawley rat model at 25 mg/kg/day, po administered on day of TNBS administration and on four consecutive days measured on day 6 by Western blot method. In kind it is functional, organism-based.

For experiment [18], the system named is Rattus norvegicus. The experiment is described as follows: In vivo of inhibition of TNBS-induced increase in colon weight in TNBS-induced colitis Sprague-Dawley rat model at 300 mg/kg/day, po administered on day of TNBS administration and on four consecutive days measured on day 6. In kind it is functional, organism-based.
Experiment [19] relates to Rattus norvegicus. The experiment can be described thus: In vivo of inhibition of TNBS-induced decrease in body weight in TNBS-induced colitis Sprague-Dawley rat model at 300 mg/kg/day, po administered on day of TNBS administration and on four consecutive days measured on day 6. In kind it is functional, organism-based.
Experiment [20] concerns Rattus norvegicus. The experiment can be described thus: In vivo of inhibition of TNBS-induced increase in myeloperoxidase level in TNBS-induced colitis Sprague-Dawley rat model colon tissue at 300 mg/kg/day, po administered on day of TNBS administration and on four consecutive days measured on day 6. In kind it is functional, organism-based.
Experiment [21] concerns the target Tumor necrosis factor (Homo sapiens) (UniProt P01375). The experiment is described as follows: Inhibition of TNFalpha (unknown origin)-induced adhesion of BCECF fluorescence-labeled human U937 cells to human HT-29 cells at 20 mM measured at 3 hrs post TNFalpha stimulation relative to control.

On to `O=C1/C(=C/c2ccccn2)Cc2ccc(O)cc21`, for which the inhibition (in general, the change of the read-out against control, counted positive when it falls) in experiment [1] was 54.8%. Also, in experiment [2], the Ratio was in the range of 7 to 23.

Consider `O=C1/C(=C/c2ccncc2)Cc2ccc(O)cc21`, for which the inhibition result (in the experiment with Rattus norvegicus [3]; in the experiment with Rattus norvegicus [4]; in the experiment on Rattus norvegicus [5]; in experiment [6]; in the experiment with Rattus norvegicus [7]; in [8]) was “Active” in each case. The inhibition result (in experiment [9]; in the experiment on Rattus norvegicus [10]; in [11]; in the experiment with Rattus norvegicus [13]; in the experiment on Rattus norvegicus [14]; in experiment [15]) was “Active” in each case. Further, the inhibition result with Rattus norvegicus [16] and with Rattus norvegicus [17] was “Active” throughout. In [1], this compound came in with an inhibition of 85.5%. For the same compound, the Ratio in experiment [2] was in the range of 7 to 23. Further, the Ratio IC50 in experiment [12] is > 10000.

Regarding `O=C1/C(=C/c2ccncc2)Cc2c(O)cccc21`, the inhibition result (in the experiment with Rattus norvegicus [3]; in the experiment with Rattus norvegicus [4]; in the experiment with Rattus norvegicus [5]; in [6]; in the experiment on Rattus norvegicus [7]; in experiment [8]) was “Active” each time. Further, the inhibition entry (in experiment [9]; in the experiment with Rattus norvegicus [10]; in [11]; in the experiment with Rattus norvegicus [13]; in the experiment with Rattus norvegicus [14]; in experiment [15]) was “Active” in each case. For the same compound, the inhibition entry in the experiment on Rattus norvegicus [16] and in the experiment with Rattus norvegicus [17] was “Active” each time. The compound also gave an inhibition in experiment [1] of 78%. Besides, the Ratio in [2] was 7 to 23.

With `O=C1/C(=C/c2ccccn2)Cc2cc(O)ccc21`, in [1], the inhibition stood at 58.1%. The Ratio in [2] was 7 to 23.

`O=C1/C(=C/c2ccccn2)Cc2c(O)cccc21`: in [1], the inhibition turned out to be 64.5%. The Ratio in experiment [2] is 7 to 23.

Consider `O=C1/C(=C/c2ccncc2)Cc2cc(O)ccc21`, for which the inhibition in experiment [1] was determined as 26.6%. Besides, the Ratio in experiment [2] lay in the range of 7 to 23.

For `O=C1/C(=C/c2ccccn2)Cc2cccc(O)c21`, the inhibition in experiment [1] turned out to be 46.2%. Besides, the Ratio in experiment [2] lay within 7 to 23.

With `O=C(O)c1cc(/N=N/c2ccc(S(=O)(=O)Nc3ccccn3)cc2)ccc1O`, the inhibition entry in the experiment with Rattus norvegicus [18], in the experiment with Rattus norvegicus [19] and in the experiment with Rattus norvegicus [20] was “Active” in each case.

Consider `O=C1/C(=C/c2ccncc2)Cc2cccc(O)c21`, for which, in experiment [6], the inhibition entry was “inactive”. The same compound came in with an inhibition in experiment [1] of 74.6%. Moreover, the Ratio in experiment [2] is 7 to 23. Moreover, the inhibition result in experiment [8] is “Active”.

In the case of `CC(C)Oc1ccc2c(c1)C(=O)/C(=C/c1ccncc1)C2`, the inhibition in experiment [1] is 45.7%.

Regarding `CC(C)Oc1cccc2c1C/C(=C\c1ccncc1)C2=O`, in experiment [1], the inhibition was determined as 60.9%.

For `CCOc1ccc2c(c1)C(=O)/C(=C/c1ccncc1)C2`, the inhibition in experiment [1] stood at 7.3%.

Turning to `O=C1/C(=C/c2cccnc2)Cc2c(O)cccc21`, the inhibition result in experiment [6] is “inactive”. This compound gave an inhibition in experiment [1] of 70.8%. Moreover, in experiment [2], the Ratio was in the range of 7 to 23. Moreover, in experiment [8], the inhibition result was “Active”.

As for `COc1cccc2c1C/C(=C\c1ccncc1)C2=O`, the inhibition in experiment [1] was found to be 5.9%.

In experiment [21], `Nc1ccc(O)c(C(=O)O)c1` gave an inhibition of 52.1%.

As to `COc1ccc2c(c1)C(=O)/C(=C/c1ccncc1)C2`, the inhibition in experiment [1] stood at 4.1%.

With `O=C1/C(=C/c2cccnc2)Cc2cccc(O)c21`, in experiment [1], the inhibition amounted to 46.1%. Also, the Ratio in experiment [2] fell in the range of 7 to 23.

As to `O=C1/C(=C/c2cccnc2)Cc2cc(O)ccc21`, the inhibition in experiment [1] came out at 67%. The Ratio in experiment [2] is 7 to 23.

As for `CCOc1cccc2c1C/C(=C\c1ccncc1)C2=O`, the inhibition in experiment [1] was 51.2%.

For the compound `O=C1/C(=C/c2cccnc2)Cc2ccc(O)cc21`, the inhibition result in [6] was “inactive”. This compound also registered an inhibition in experiment [1] of 74.7%. For the same compound, the Ratio in [2] lay within 7 to 23. The inhibition entry in experiment [8] is “Active”.
